The text below walks through data of US20250100968A1, “BICYCLIC-HETEROCYCLE DERIVATIVES AND RELATED USES” (CENTESSA PHARMACEUTICALS (UK) LIMITED, priority 2022, published 2025).
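Wherever EC50 is given: agonist activity in CHO cells stably expressing hOX2R, intracellular Ca2+ via Calcium 5 dye fluorescence area over 2 min, buffer-only as 0% and 10 nM orexin A as 100%.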

For one experiment, the target named is T1, OX2R (Homo sapiens, UniProt O43614).
T1 construct: host or cells: individuals with NT1
T1 sequence (O43614 1-444): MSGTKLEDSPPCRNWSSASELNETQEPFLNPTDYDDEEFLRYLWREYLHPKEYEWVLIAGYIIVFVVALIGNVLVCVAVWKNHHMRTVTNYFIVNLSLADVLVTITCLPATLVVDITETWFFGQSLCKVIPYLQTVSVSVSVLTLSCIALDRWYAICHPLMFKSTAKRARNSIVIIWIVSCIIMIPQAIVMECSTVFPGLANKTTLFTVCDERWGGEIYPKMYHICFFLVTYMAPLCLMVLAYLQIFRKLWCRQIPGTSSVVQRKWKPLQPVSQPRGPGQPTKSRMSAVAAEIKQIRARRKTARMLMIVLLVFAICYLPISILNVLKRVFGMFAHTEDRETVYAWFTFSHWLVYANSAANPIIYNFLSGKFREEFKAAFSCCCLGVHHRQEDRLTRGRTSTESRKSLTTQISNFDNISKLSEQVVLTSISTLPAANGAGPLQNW
Assay: not given
Particulars: individuals with NT1; initial clinical studies; cited from earlier work.
On to `COC(=O)N1CCC[C@H](NS(C)(=O)=O)[C@@H]1CO[C@H]1CC[C@@H](c2ccccc2)CC1` [TAK-925], for which the cataplexy entry was “trends for decreasing cataplexy” and the wakefulness entry is on record as “substantial levels of increased wakefulness”.

The target in the next experiment is T2, OX2R (Mus musculus, UniProt P58308).
T2 construct: host or cells: mice (WT, orexin-deficient, orexin-neuron ablated)
T2 sequence (P58308 1-460): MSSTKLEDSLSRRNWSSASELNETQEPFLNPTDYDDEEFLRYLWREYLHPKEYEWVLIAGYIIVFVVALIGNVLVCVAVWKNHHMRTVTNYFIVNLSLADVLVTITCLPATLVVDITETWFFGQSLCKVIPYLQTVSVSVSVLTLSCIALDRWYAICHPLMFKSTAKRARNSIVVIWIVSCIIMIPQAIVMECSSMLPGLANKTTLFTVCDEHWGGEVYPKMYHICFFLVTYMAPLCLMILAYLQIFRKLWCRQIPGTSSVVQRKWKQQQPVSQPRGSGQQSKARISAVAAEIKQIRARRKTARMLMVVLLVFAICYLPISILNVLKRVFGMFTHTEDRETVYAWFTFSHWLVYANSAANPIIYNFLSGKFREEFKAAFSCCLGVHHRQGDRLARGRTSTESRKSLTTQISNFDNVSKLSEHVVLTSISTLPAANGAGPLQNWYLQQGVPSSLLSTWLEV
Assay: not given
Particulars: intraperitoneally or ICV; NT1 mouse model; cited from earlier work.
Consider `COc1ccc(-c2cccc(C(=O)N(C)C)c2)cc1S(=O)(=O)Nc1cccc(NCCNC(=O)c2ccccc2N(C)C)c1` [YNT-185], for which the “sleep-onset REM periods and cataplexy-like events” value is “decrease sleep-onset REM periods and cataplexy-like events”.

The same experiment, now with this note: intraperitoneally or ICV; wild type (WT) and orexin ligand-deficient mice; cited from earlier work.
`COc1ccc(-c2cccc(C(=O)N(C)C)c2)cc1S(=O)(=O)Nc1cccc(NCCNC(=O)c2ccccc2N(C)C)c1` [YNT-185]: the wakefulness result was “modestly increases wakefulness”.

The same experiment, now with this note: subcutaneous administration; WT mice; cited from earlier work.
For `COC(=O)N1CCC[C@H](NS(C)(=O)=O)[C@@H]1CO[C@H]1CC[C@@H](c2ccccc2)CC1` [TAK-925], the wakefulness result is reported as “modestly increased wakefulness”.

The target of the next experiment is T3, human orexin type 2 receptor (hOX2R) (Homo sapiens, UniProt O43614).
T3 sequence (O43614 1-444): T1 sequence (O43614 1-444)
The experiment is described as follows: cell-based.
Details: not given
As a reminder, the EC50 is the concentration that produces a half-maximal response. High values mean lower potency in that assay, low ones higher potency in that assay. Take `CC[C@](C)(O)C(=O)N1CC2(CC2)[C@H](NS(=O)(=O)C(F)F)[C@@H]1Cc1cccc(-c2cc(F)cc(F)c2)c1F` [compound 78, 1,1-difluoro-N-((6S,7S)-5-((S)-2-hydroxy-2-methylbutanoyl)-6-((2,3′,5′-trifluoro-[1,1′-biphenyl]-3-yl)methyl)-5-azaspiro[2.4]heptan-7-yl)methanesulfonamide]: the EC50 lay within 1 to 10 nM. Still for that read-out and setting: then `N#C[C@@]1(C(=O)N2CC3(CC3)[C@H](NS(=O)(=O)CF)[C@@H]2Cc2cccc(-c3cc(F)ccc3F)c2F)CCO1` [compound 79, N-((6S,7S)-5-((R)-2-cyanooxetane-2-carbonyl)-6-((2,2′,5′-trifluoro-[1,1′-biphenyl]-3-yl)methyl)-5-azaspiro[2.4]heptan-7-yl)-1-fluoromethanesulfonamide], with 0.0631 to 1 nM. Still for that read-out and setting: then `N#C[C@]1(C(=O)N2CC3(CC3)[C@H](NS(=O)(=O)CF)[C@@H]2Cc2cccc(-c3cc(F)ccc3F)c2F)CCO1` [compound 80, N-((6S,7S)-5-((S)-2-cyanooxetane-2-carbonyl)-6-((2,2′,5′-trifluoro-[1,1′-biphenyl]-3-yl)methyl)-5-azaspiro[2.4]heptan-7-yl)-1-fluoromethanesulfonamide], with 0.0631 to 1 nM; and `O=C(N1CC2(CC2)[C@H](NS(=O)(=O)CF)[C@@H]1Cc1cccc(-c2ccccc2)c1F)C1(CF)COC1` [compound 81, 1-fluoro-N-((6S,7S)-6-((2-fluoro-[1,1′-biphenyl]-3-yl)methyl)-5-(3-(fluoromethyl)oxetane-3-carbonyl)-5-azaspiro[2.4]heptan-7-yl)methanesulfonamide], with 1 to 10 nM. Same read-out and setting: then `CC(C)NC(=O)N1CC2(CC2)[C@H](NS(=O)(=O)CF)[C@@H]1Cc1cccc(-c2ccccc2)c1F` [compound 82, (6S,7S)-6-((2-fluoro-[1,1′-biphenyl]-3-yl)methyl)-7-((fluoromethyl)sulfonamido)-N-isopropyl-5-azaspiro[2.4] heptane-5-carboxamide], with 1 to 10 nM; and `C[C@@](O)(CF)C(=O)N1CC2(CC2)[C@H](NS(=O)(=O)CF)[C@@H]1Cc1cccc(-c2cc(F)cc(F)c2)c1F` [compound 83, 1-fluoro-N-((6S,7S)-5-((S)-3-fluoro-2-hydroxy-2-methylpropanoyl)-6-((2,3′,5′-trifluoro-[1,1′-biphenyl]-3-yl)methyl)-5-azaspiro[2.4]heptan-7-yl)methanesulfonamide], with 1 to 10 nM; and `C[C@](O)(C(=O)N1CC2(CC2)[C@H](NS(=O)(=O)CF)[C@@H]1Cc1cc(F)cc(-c2ccccc2)c1F)C(F)F` [compound 84, N-((6S,7S)-5-((S)-3,3-difluoro-2-hydroxy-2-methylpropanoyl)-6-((2,5-difluoro-[1,1′-biphenyl]-3-yl)methyl)-5-azaspiro[2.4]heptan-7-yl)-1-fluoromethanesulfonamide], with 1 to 10 nM. Compound `N#C[C@]1(C(=O)N2CC3(CC3)[C@H](NS(=O)(=O)CF)[C@@H]2Cc2cc(F)cc(-c3ccccc3)c2F)CCO1` [compound 85, N-((6S,7S)-5-((S)-2-cyanooxetane-2-carbonyl)-6-((2,5-difluoro-[1,1′-biphenyl]-3-yl)methyl)-5-azaspiro[2.4]heptan-7-yl)-1-fluoromethanesulfonamide] came in with an EC50 of 1 to 10 nM. Same read-out and setting: the value for `C[C@H](CF)NC(=O)N1CC2(CC2)[C@H](NS(=O)(=O)C2(F)CC2)[C@@H]1Cc1cccc(-c2ccccc2)c1F` [compound 86, (6S,7S)-6-((2-fluoro-[1,1′-biphenyl]-3-yl)methyl)-7-((1-fluorocyclopropane)-1-sulfonamido)-N-((R)-1-fluoropropan-2-yl)-5-azaspiro[2.4]heptane-5-carboxamide] was 0.0631 to 1 nM; that for `O=C([C@H]1CCO1)N1CC2(CC2)[C@H](NS(=O)(=O)C2(F)CC2)[C@@H]1Cc1cc(F)cc(-c2ccccc2)c1F` [compound 87, N-((6S,7S)-6-((2,5-difluoro-[1,1′-biphenyl]-3-yl)methyl)-5-((R)-oxetane-2-carbonyl)-5-azaspiro[2.4]heptan-7-yl)-1-fluorocyclopropane-1-sulfonamide] was 1 to 10 nM. On the same count and under the same terms, the value for `C[C@@H](NC(=O)N1CC2(CC2)[C@H](NS(=O)(=O)CF)[C@@H]1Cc1cc(F)cc(-c2ccccc2)c1F)C(F)F` [compound 88, (6S,7S)-6-((2,5-difluoro-[1,1′-biphenyl]-3-yl)methyl)-N-((R)-1,1-difluoropropan-2-yl)-7-((fluoromethyl)sulfonamido)-5-azaspiro[2.4]heptane-5-carboxamide] was 1 to 10 nM; that for `N#C[C@]1(C(=O)N2CC3(CC3)[C@H](NS(=O)(=O)CF)[C@@H]2Cc2cc(F)cc(-c3ccccc3)c2F)C[C@H](F)C1` [compound 89, N-((6S,7S)-5-((1r,3S)-1-cyano-3-fluorocyclobutane-1-carbonyl)-6-((2,5-difluoro-[1,1′-biphenyl]-3-yl)methyl)-5-azaspiro[2.4]heptan-7-yl)-1-fluoromethanesulfonamide] was 1 to 10 nM. Turning to `N#C[C@]1(C(=O)N2CC3(CC3)[C@H](NS(=O)(=O)CF)[C@@H]2Cc2cc(F)cc(-c3ccccc3)c2F)C[C@@H](F)C1` [compound 90, N-((6S,7S)-5-((1s,3R)-1-cyano-3-fluorocyclobutane-1-carbonyl)-6-((2,5-difluoro-[1,1′-biphenyl]-3-yl)methyl)-5-azaspiro[2.4]heptan-7-yl)-1-fluoromethanesulfonamide], the EC50 lay within 1 to 10 nM. Compound `C[C@](O)(CF)C(=O)N1CC2(CC2)[C@H](NS(=O)(=O)C2(F)CC2)[C@@H]1Cc1cccc(-c2ccccc2)c1F` [compound 91, 1-fluoro-N-((6S,7S)-5-((R)-3-fluoro-2-hydroxy-2-methylpropanoyl)-6-((2-fluoro-[1,1′-biphenyl]-3-yl)methyl)-5-azaspiro[2.4]heptan-7-yl)cyclopropane-1-sulfonamide] returned an EC50 of 0.0631 to 1 nM.
